Measured values from ChEMBL document CHEMBL1136513, “Evaluation of vinylsulfamides as sulfhydryl selective alkylation reagents in protein modification” (Bioorg Med Chem Lett, 2003).

Columns and labels:
[1] = Half-life period at pH 9.2 in the presence of five times more lysine; assay type: ADME
[2] = Half-life period at pH 8.1 in the presence of five times more lysine; assay type: ADME
[3] = Half-life period at pH 7.2 in the presence of five times more cysteine; assay type: ADME
[4] = Half-life period at pH 9.2 in the presence of five times more cysteine; ND1 indicates reaction rate was too quick to determine; assay type: ADME
[5] = Half-life period at pH 7.2 in the presence of five times more lysine; ND2 indicates reaction rate was too slow to measure
[6] = Half-life period at pH 8.1 in the presence of five times more cysteine; assay type: ADME

- half-life [1]: 29.6 h
- half-life [2]: 178 h
- half-life [3]: 1.28 h
- T1/2 [4]: Reaction rate too quick
- T1/2 [5]: Reaction rate too slow
- half-life [6]: 0.45 h
Structure (SMILES): C=CS(=O)(=O)NCc1ccc([N+](=O)[O-])cc1
